Assays:
[1] = Apparent dissociation constant for Pb2+ from fluorescence of the complex (Hill fit); assay type: binding; conditions: pH=10; read-out: apparent dissociation coefficient, Kd, for Pb^2+
Excerpt: [drawing 8] or the corresponding thiolate compound (i.e., where one or both thiols of the ene-dithiol are deprotonated). In the presence of Pb^2+ ions and a hydrolyzing agent, the dithiocarbonate functionality of compound IV may be hydrolyzed and the resulting fluorescent binder compound binds with the Pb^2+ to form a Pb^2+/binder complex. According to specific embodiments, the fluorescent binder of the present disclosure has a high sensitivity for Pb^2+ ions, even in the presence of other metal ions. […] In other embodiments, the Kd may be less than 300 nM, or in certain embodiments less than 250 nM. […] As will be understood by one of ordinary skill in the art, the Kd for binding of Pb^2+ may vary according to the conditions of the experiment, including, but not limited to solvent, temperature, pH, etc. It should be noted that in other embodiments, other compounds represented by Formula I may also serve as selective binders of lead, or other metal ions.
(§1) All spectroscopic measurements were recorded in a solution of 2.5% methanol (for solubility reason) and water. HPLC grade MeOH and distilled water were used for each measurement. Absorption spectra were measured on a Varian Cary 300 spectrometer. Samples for absorption measurement were performed in 1-cm 1-cm quartz cuvettes (3.5 mL volume, Starna). […]

[2] = Fluorescence emission with Pb2+ versus other metal ions (Example 5, FIG. 51); conditions: 5 μM fluorophore, 75 μM Pb^2+, other metal ion 75 μM or 2 millimolar
Excerpt: According to certain embodiments, the fluorescent binder discussed herein selectively binds to Pb^2+ over other metal ions including other transition metal ions. According to various embodiments, the fluorescence emission intensity of the Pb^2+/binder complex is greater than a fluorescence emission intensity of other metal ion/binder complexes. Other metal ions that may form a metal ion/binder complex that has a lower fluorescence emission intensity than that of the Pb^2+/binder complex include, but are not limited to Li^+, Na^+, K^+, Ca^2+, Mg^2+, Fe^2+, Co^2+, Ni^2+, Cu^2+, Zn^2+, Cd^2+, Mn^2+, Hg^2+, Sn^2+, As^3+, and mixtures thereof. For example, according to one non-limiting embodiment, the Pb^2+/binder complex in the presence of the other metal ions may have a fluorescence emission intensity at least about 10 times greater than the fluorescence emission intensity of another metal ion/binder complex. In other embodiments, the Pb^2+/binder complex in the presence of the other metal may have a fluorescence emission intensity at least about 20 times greater than the fluorescence emission intensity of another metal ion/binder complex. FIG. 51 compares the fluorescence emission intensity of the Pb^2+/binder complex in the presence of the other metal with the fluorescence emission intensity of the other metal ion/binder complexes (i.e., in the absence of Pb^2+). […]

[3] = Turn-on fluorescence response to Pb2+ (Example 3, FIG. 49); conditions: 5 μM, 2.5% methanol-water; unbound at 465 nm, Pb^2+ complex at 423 nm
Excerpt: (§2) When the fluorescent binder according to the present embodiments binds with Pb^2+ to form a Pb^2+/binder complex, the complex fluoresces with a high optical brightness. For example, according to the present embodiments, the unbound fluorescent binder represented by Formula V (or Formula IV, in its protected form) may have an excitation band with a absorbance maximum λmax at a wavelength centered around 415 nm, an emission band with a emission maximum λmax centered around 465 and a quantum yield for the fluorescence emission of φ=0.12. When the fluorescent binder is bound to Pb^2+ ions, the resulting Pb^2+/binder complex may have an excitation band with a λmax centered around 389 nm, an emission band with a λmax centered around 423 nm, and a quantum yield of φ=0.63. Quantum yields were calculated with reference to the quantum yield of fluorescein (φ=0.95). […]
In this Example, the “turn on” response of the fluorophore corresponding to Formula V (Formula IV in protected form) was determined. The fluorescence emission spectrum of a 5 μM solution of the fluorophore in 2.5% methanol-water was recorded with a maximum emission intensity observed at λmax=465 nm (expanded spectrum shown in the inset in FIG. 49). […] The fluorescence emission spectrum of the resulting Pb^2+/fluorophore complex was recorded with a maximum fluorescence emission intensity observed at λmax=423 nm as presented in FIG. 49.

[4] = Solubility; assay type: physicochemical
Excerpt: (§3) These fluorophores are soluble in common organic solvents, for example, but not limited to, chloroform, methylene chloride, acetonitrile, and methanol and in mixtures of methanol and water. […] There is a shoulder near […] and no transition was observed beyond 430 nm. The molar extinction coefficients of these bands are near 10000 or higher. […] The spectral features remain unchanged in a mixed solvent such as 2.5% methanol 97.5% water. […] Thus, in principle, this compound can be used as a pH sensor. That is, the fluorescence emission intensity may vary according to the pH of the environment or solution that the fluorophore is in.
In addition, the Pb^2+/binder complex fluoresces with greater emission intensity over a wide pH range in aqueous solutions. According to one embodiment the Pb^2+/binder complex fluoresces with a high fluorescence emission intensity, for example with a quantum yield of greater than 0.5 (φ>0.5), at pH values of 10 or less. […] Thus, the term “high fluorescence emission intensity” means a fluorescence emission intensity having a quantum efficiency of greater than 0.5 (φ>0.5 as measured relative to a fluorescein reference). […] With other fluorophores, the fluorescence emission intensity of the fluorophore may decrease at low pH levels. For comparison, as discussed herein, the quantum yield for fluorescence emission of fluorescein decreases at pH levels less than ˜8.

[5] = Fluorescence quantum yield in reference to fluorescein; assay type: physicochemical
Procedure: For an acetonitrile solution of fluorophore 7, when excited at […] or 384 nm band, an emission at 411 nm is observed. Similarly when a methanolic solution of fluorophore 7 is excited at 385 nm or 367 nm, an emission at 415 nm is observed. Finally for a solution of fluorophore 7 in the mixed solvent, when excited at 389 nm, an emission is observed at 423 nm (see FIG. 10). A 0.12 value for the quantum yield of fluorophore 7 in methanol was determined in reference to fluorescein in 0.1 M NaOH (φ=0.95) (using the procedure reported by Brannon, et al., J. Phys. Chem. 1978, 82, 705). Fluorophores of the present disclosure are further described in U.S. application Ser. No. 12/020,343, filed Jan. […]
as §2, with “When the fluorescent binder is bound to Pb^2+ ions, the resulting Pb^2+/binder complex may have an excitation band with a λmax centered around 389 nm, an emission band with a λmax centered around 423 nm, and a quantum yield of φ=0.63.” left out

[6] = Quantitative Pb2+ detection in NIST SRM 1643e Trace Elements in Water; conditions: 1 μM compound, NEt4OH 2:1, 2.5% MeOH and water
Procedure: The fluorescence emission intensity of the Pb^2+/complex in a sample may be measured and compared to a standard calibration plot or values to determine the Pb^2+ ion concentration in the sample. For example, To further examine the sensitivity and accuracy of the sensor, a NIST standard of trace elements in water (SRM® 1643e) in the concentration range of 1-50 ppb Pb^2+ was used and probed with 1 μM of a compound having the structure of Formula IV. In this case, accurate fluorescence responses were observed from 50 ppb to as low as 10 ppb. Further, compound IV was also used in quantitating the concentration of Pb^2+ in solutions prepared from a lead standard (NIST SRM® 3128).
as §1, with “Starna). Fluorescence spectra were measured on a Photon Technology International QuantaMaster™4 spectrofluorometer. Fluorescence measurements were performed in 1-cm 1-cm quartz cuvettes (3.5 mL volume, NSG Precision Cells). Fluorescence quantum yields were determined in reference to fluorescein in 0.1 NaOH (φ=0.95).” for “Starna).”

[7] = Stability in acid and base; assay type: physicochemical
Excerpt: as §3

Compound	Kd [1]	fluorescence emission intensity with Pb^2+ plus other metal ion versus other metal ion alone [2]	maximum fluorescence emission intensity [3]	solubility in aqueous solution [4]	quantum yield for the fluorescence emission ([5]; unbound binder or Pb^2+ complex, reference fluorescein (φ=0.95))	Pb^2+ range detected quantitatively by increase in fluorescence response [6]	stability in acid ([7]; acid)	stability in base ([7]; base (pH>7))	quantum yield ([5]; in methanol, reference fluorescein in 0.1 M NaOH)
CC1(C)Oc2nc3ccccc3nc2C(S)=C1S [Formula V]	217 nM	significantly greater fluorescence emission intensity	~6000 counts/second	soluble in aqueous solution	0.12	–	–	–	–
CC1(C)Oc2nc3ccccc3nc2-c2sc(=O)sc21 [Compound 7, 4,4-dimethyl-4H-5-oxa-1,3-dithia-6,11-diaza-cyclopenta[a]anthracen-2-one]	–	–	–	–	–	10-50 ppb	stable in acid	transforms into a less fluorescent substance	0.12
